Measured values from ChEMBL document CHEMBL1201862, “PubChem BioAssay data set” (2004).
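Step 1: Grow cells in 96-well plates. Step 2: Expose to compound for 48 hours at 5 concentrations. Step 3: Interpolate endpoints linearly; if unreached, use highest concentration. GI50 is the concentration that inhibits growth by half.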 Activity calls are given as the source filed them. No stated cut-off is given here; in the data, active = GI50 up to about 1.1 µM and inactive = higher.

How the values were obtained:
Assay in all cases: growth of human tumour cells (NCI), 48 h
786-0 = system: 786-0
CCRF-CEM = system: CCRF-CEM
COLO 205 = system: COLO 205
DU-145 = system: DU-145
HCC 2998 = system: HCC 2998
HL-60 = system: HL-60
HOP-62 = system: HOP-62
HOP-92 = system: HOP-92
M14 = system: M14
MCF7 = system: MCF7
MOLT-4 = system: MOLT-4
SK-MEL-28 = system: SK-MEL-28
SK-MEL-2 = system: SK-MEL-2
SR = system: SR
SW-620 = system: SW-620
U-251 = system: U-251
UACC-62 = system: UACC-62
UO-31 = system: UO-31
K562 = system: K562
RXF 393 = system: RXF 393

Measured: GI50

Clc1c2nc3ccccc3c-2[nH]c2ccccc12
inactive: 786-0 32.5 µM | CCRF-CEM 19.2 µM | COLO 205 2.86 µM | DU-145 22 µM | HCC 2998 24.5 µM | HL-60 15.6 µM | HOP-62 47.1 µM | HOP-92 > 100 µM | M14 36.2 µM | MCF7 6.28 µM | MOLT-4 2.9 µM | SK-MEL-28 52.4 µM | SK-MEL-2 > 100 µM | SR 4.37 µM | SW-620 8.83 µM | U-251 50.4 µM | UACC-62 48.8 µM | UO-31 7.98 µM

Cc1ccc(Cc2n[nH]c(=O)n2Nc2ccccc2)cc1
inactive: 786-0 > 100 µM | CCRF-CEM > 100 µM | COLO 205 > 100 µM | DU-145 > 100 µM | HCC 2998 > 100 µM | HL-60 > 100 µM | HOP-62 > 100 µM | HOP-92 65.2 µM | K562 > 100 µM | MCF7 > 100 µM | MOLT-4 > 100 µM | SK-MEL-28 92.3 µM | SK-MEL-2 > 100 µM | SR > 100 µM | SW-620 > 100 µM | U-251 > 100 µM | UACC-62 > 100 µM | UO-31 68.2 µM

Cc1ccc(-c2cn3c(nc4ccccc43)c(/C=C/c3ccco3)n2)cc1
inactive: 786-0 48 µM | COLO 205 61.7 µM | DU-145 > 100 µM | HCC 2998 > 100 µM | HL-60 22.2 µM | HOP-62 > 100 µM | HOP-92 > 100 µM | K562 37.7 µM | M14 > 100 µM | MCF7 29.6 µM | RXF 393 > 100 µM | SK-MEL-28 58.1 µM | SK-MEL-2 22.1 µM | SR 19.6 µM | SW-620 47.6 µM | U-251 60.5 µM | UACC-62 > 100 µM | UO-31 > 100 µM

COc1cc(C2SC(=N)Nc3c2c(C)nn3C(=O)c2ccc(Cl)cc2)ccc1O (stereo unspecified)
inactive: 786-0 > 10 µM | CCRF-CEM > 10 µM | COLO 205 > 10 µM | DU-145 > 10 µM | HCC 2998 > 10 µM | HL-60 > 10 µM | HOP-62 > 10 µM | HOP-92 > 10 µM | K562 > 10 µM | M14 > 10 µM | MCF7 > 10 µM | MOLT-4 > 10 µM | RXF 393 > 10 µM | SK-MEL-28 > 10 µM | SK-MEL-2 > 10 µM | SR > 10 µM | SW-620 > 10 µM | U-251 > 10 µM | UACC-62 > 10 µM

COc1c(-c2ccc(O)c(O)c2)oc2c(O)c(O)cc(O)c2c1=O
inactive: 786-0 67.5 µM | CCRF-CEM 29.2 µM | COLO 205 > 100 µM | DU-145 > 100 µM | HCC 2998 > 100 µM | HL-60 > 10 µM | HOP-62 26.7 µM | HOP-92 > 100 µM | K562 20.8 µM | M14 > 10 µM | MCF7 28.2 µM | MOLT-4 28.6 µM | SK-MEL-28 > 100 µM | SK-MEL-2 > 100 µM | SR 22 µM | SW-620 22.5 µM | U-251 34.8 µM | UACC-62 51.1 µM | UO-31 > 100 µM

CN(CCNC(=O)c1n[nH]c2c1Cc1ccccc1-2)CCNC(=O)c1n[nH]c2c1Cc1ccccc1-2
inactive: 786-0 16 µM | CCRF-CEM 18.1 µM | COLO 205 17.3 µM | DU-145 15.5 µM | HCC 2998 15.4 µM | HL-60 21.1 µM | HOP-62 14.8 µM | HOP-92 17.3 µM | K562 18 µM | M14 18.7 µM | MCF7 19.3 µM | MOLT-4 19.4 µM | RXF 393 15.3 µM | SK-MEL-28 18.3 µM | SR 19.5 µM | SW-620 22.1 µM | U-251 19.3 µM | UACC-62 19 µM | UO-31 19.4 µM

C1=C[C@]2(CCC13OCCO3)COc1ccccc12
inactive: 786-0 54.3 µM | CCRF-CEM 33.3 µM | COLO 205 88.7 µM | DU-145 32.3 µM | HCC 2998 43.6 µM | HL-60 6.81 µM | HOP-62 41.2 µM | HOP-92 46.7 µM | K562 11.9 µM | M14 26.6 µM | MCF7 33.3 µM | MOLT-4 20.2 µM | SK-MEL-28 49.3 µM | SK-MEL-2 34.7 µM | SR 29.9 µM | SW-620 54.8 µM | U-251 48.8 µM | UACC-62 23.9 µM | UO-31 35.3 µM

Cc1ccc(C2=CC(=O)/C(=C\C(=O)c3ccc(Br)cc3)O2)c(C)c1
inactive: 786-0 8.34 µM | CCRF-CEM 2.69 µM | COLO 205 3.85 µM | DU-145 30.4 µM | HCC 2998 12.1 µM | HL-60 3.92 µM | HOP-62 42.4 µM | HOP-92 6.4 µM | K562 3.4 µM | M14 11.6 µM | MCF7 5.33 µM | MOLT-4 3.52 µM | RXF 393 4.58 µM | SK-MEL-28 17.2 µM | SK-MEL-2 49.1 µM | SR 2.36 µM | U-251 18 µM | UACC-62 9.48 µM | UO-31 9.02 µM

O=C(O)CCC(NC(=O)c1ccc(Nc2nc3ccccc3nc2C(=O)O)cc1)C(=O)O (stereo unspecified)
inactive: 786-0 > 100 µM | CCRF-CEM > 100 µM | COLO 205 > 100 µM | DU-145 > 100 µM | HCC 2998 > 100 µM | HL-60 > 100 µM | HOP-62 > 100 µM | HOP-92 > 100 µM | K562 > 100 µM | M14 > 100 µM | MCF7 > 100 µM | MOLT-4 > 100 µM | SK-MEL-28 > 100 µM | SK-MEL-2 > 100 µM | SR > 100 µM | U-251 > 100 µM | UACC-62 > 100 µM | UO-31 > 100 µM

CC1=NN=C(N)N/C1=C\C(Sc1ccc(Cl)cc1)c1ccc(Cl)cc1Cl (stereo unspecified)
inactive: 786-0 18.5 µM | CCRF-CEM 2.33 µM | COLO 205 18.9 µM | DU-145 19.3 µM | HCC 2998 4.67 µM | HL-60 3.74 µM | HOP-62 23.8 µM | HOP-92 9.71 µM | K562 1.28 µM | M14 13.6 µM | MCF7 3.78 µM | MOLT-4 7.29 µM | RXF 393 16.3 µM | SK-MEL-28 21.8 µM | SK-MEL-2 16.4 µM | SR > 100 µM | SW-620 17.2 µM | U-251 14.2 µM | UACC-62 14.7 µM | UO-31 11.2 µM

C[C@@]12C[C@@H](c3ccccc3O1)N1CCSC1=N2
inactive: 786-0 > 100 µM | COLO 205 > 100 µM | DU-145 > 100 µM | HCC 2998 > 100 µM | HL-60 > 100 µM | HOP-62 > 100 µM | HOP-92 > 100 µM | K562 > 100 µM | M14 > 100 µM | MCF7 > 100 µM | MOLT-4 75.5 µM | RXF 393 > 100 µM | SK-MEL-28 > 100 µM | SK-MEL-2 > 100 µM | SR > 100 µM | SW-620 > 100 µM | U-251 > 100 µM | UACC-62 > 100 µM | UO-31 > 100 µM
